Target: T1, hSTING (Homo sapiens, UniProt Q86WV6, G230A/H232R/R293Q/R71H)
T1 construct: host or cells: THP1-Dual KO-IFNAR2 cells
Experiment: STING reporter assay in THP1-Dual KO-IFNAR2 cells (2'3'cGAMP stimulation, luciferase reporter)
Type: cell-based
Settings: 15 μM 2'3'cGAMP, 24 h, class symbols
Protocol: STING pathway activation by the compounds described herein was measured using THP1-Dual™ cells (KO-IFNAR2).
THP1-Dual™ KO-IFNAR2 Cells (obtained from invivogen) were maintained in RPMI, 10% FCS, 5 ml P/S, 2 mM L-glut, 10 mM Hepes, and 1 mM sodium pyruvate. Compounds were spotted in empty 384 well tissue culture plates (Greiner 781182) by Echo for a final concentration of 0.0017-100 μM. Cells were plated into the TC plates at 40 μL per well, 2×10E6 cells/mL. For activation with STING ligand, 2′3′cGAMP (MW 718.38, obtained from Invivogen), was prepared in Optimem media.
The following solutions were prepared for each 1×384 plate: • Solution A: 2 mL Optimem with one of the following stimuli: • 60 μL of 10 mM 2′3′cGAMP→150 μM stock • Solution B: 2 mL Optimem with 60 μL Lipofectamine 2000→Incubate 5 min at RT
2 mL of solution A and 2 ml Solution B was mixed and incubated for 20 min at room temperature (RT). 20 μL of transfection solution (A+B) was added on top of the plated cells, with a final 2′3′cGAMP concentration of 15 μM. The plates were then centrifuged immediately at 340 g for 1 minute, after which they were incubated at 37° C., 5% CO2, >98% humidity for 24 h. Luciferase reporter activity was then measured. EC50 values were calculated by using standard methods known in the art.
Luciferase reporter assay: 10 μL of supernatant from the assay was transferred to white 384-plate with flat bottom and squared wells. One pouch of QUANTI-Luc™ Plus was dissolved in 25 mL of water. 100 μL of QLC Stabilizer per 25 mL of QUANTI-Luc™ Plus solution was added. 50 μL of QUANTI-Luc™ Plus/QLC solution per well was then added. Luminescence was measured on a Platereader (e.g., Spectramax I3X (Molecular Devices GF3637001)).
Luciferase reporter activity was then measured. EC50 values were calculated by using standard methods known in the art.

T1 sequence (Q86WV6 whole entry R71H/G230A/H232R/R293Q): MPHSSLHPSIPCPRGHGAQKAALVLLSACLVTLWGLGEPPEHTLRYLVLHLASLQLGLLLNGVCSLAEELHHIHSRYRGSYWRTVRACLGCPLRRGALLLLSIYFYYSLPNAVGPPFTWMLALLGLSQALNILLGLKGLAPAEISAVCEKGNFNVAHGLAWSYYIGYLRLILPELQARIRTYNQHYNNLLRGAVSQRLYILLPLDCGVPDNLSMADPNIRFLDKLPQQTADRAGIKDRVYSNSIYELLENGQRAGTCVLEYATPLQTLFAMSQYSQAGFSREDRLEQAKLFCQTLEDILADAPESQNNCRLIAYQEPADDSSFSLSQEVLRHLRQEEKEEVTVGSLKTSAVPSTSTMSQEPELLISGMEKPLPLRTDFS

Compound	EC50
N#Cc1cc(Nc2ccc(Cl)c(Cl)c2)cc(Nc2ccc3cc[nH]c3c2)n1 [Compound 138, 4-[(3,4-dichlorophenyl)amino]-6-[(1H-indol-6-yl)amino]pyridine-2-carbonitrile]	0.2 to 1 µM
N#Cc1cc(N2CCOCC2)cc(Nc2cc(Cl)c3cc[nH]c3c2)n1 [Compound 161, 6-[(4-chloro-1H-indol-6-yl)amino]-4-(morpholin-4-yl)pyridine-2-carbonitrile]	1 to 5 µM
CC(C)c1cncc(Nc2cc(C#N)nc(Nc3cc(Cl)c4cc[nH]c4c3)c2)c1 [Compound 162, 6-[(4-chloro-1H-indol-6-yl)amino]-4-{[5-(propan-2-yl)pyridin-3-yl]amino}pyridine-2-carbonitrile]	0.2 to 1 µM
N#Cc1cc(Nc2ccc3c(c2)CC(=O)N3)cc(Nc2ccc3cc[nH]c3c2)n1 [Compound 101, 6-[(1H-indol-6-yl)amino]-4-[(2-oxo-2,3-dihydro-1H-indol-5-yl)amino]pyridine-2-carbonitrile]	5 to 100 µM
N#Cc1cc(Nc2ccc(Cl)c(F)c2)cc(Nc2cc(Cl)c3cc[nH]c3c2)n1 [Compound 165, 6-[(4-chloro-1H-indol-6-yl)amino]-4-[(4-chloro-3-fluorophenyl)amino]pyridine-2-carbonitrile]	0.04 to 0.2 µM
N#Cc1cc(Nc2ccc(OC(F)F)nc2)cc(Nc2ccc3cc[nH]c3c2)n1 [Compound 126, 4-{[6-(difluoromethoxy)pyridin-3-yl]amino}-6-[(1H-indol-6-yl)amino]pyridine-2-carbonitrile]	0.2 to 1 µM
N#Cc1cc(Nc2cc(F)cc(F)c2)cc(Nc2cc(Cl)c3cc[nH]c3c2)n1 [Compound 170, 6-[(4-chloro-1H-indol-6-yl)amino]-4-[(3,5-difluorophenyl)amino]pyridine-2-carbonitrile]	0.04 to 0.2 µM
COC1CCN(c2cc(C#N)nc(Nc3cc(Cl)c4cc[nH]c4c3)c2)CC1 [Compound 156, 6-[(4-chloro-1H-indol-6-yl)amino]-4-(4-methoxypiperidin-1-yl)pyridine-2-carbonitrile]	1 to 5 µM
N#Cc1cc(N2CCN(CC(F)(F)F)CC2)cc(Nc2cc(Cl)c3cc[nH]c3c2)n1 [Compound 148, 6-[(4-chloro-1H-indol-6-yl)amino]-4-[4-(2,2,2-trifluoroethyl)piperazin-1-yl]pyridine-2-carbonitrile]	1 to 5 µM
COc1cc(Nc2cc(C#N)nc(Nc3cc(Cl)c4cc[nH]c4c3)c2)cnc1Cl [Compound 150, 6-[(4-chloro-1H-indol-6-yl)amino]-4-[(6-chloro-5-methoxypyridin-3-yl)amino]pyridine-2-carbonitrile]	0.2 to 1 µM
N#Cc1cc(Nc2ccc3c(c2)OC(F)(F)O3)cc(Nc2ccc3cc[nH]c3c2)n1 [Compound 117, 4-[(2,2-difluoro-2H-1,3-benzodioxol-5-yl)amino]-6-[(1H-indol-6-yl)amino]pyridine-2-carbonitrile]	0.2 to 1 µM
CC1(C)C(=O)Nc2cc(Nc3cc(C#N)nc(Nc4ccc5cc[nH]c5c4)c3)ccc21 [Compound 122, 4-[(3,3-dimethyl-2-oxo-2,3-dihydro-1H-indol-6-yl)amino]-6-[(1H-indol-6-yl)amino]pyridine-2-carbonitrile]	1 to 5 µM
N#Cc1cc(Nc2cc(F)cc(F)c2)cc(Nc2ccc3cc[nH]c3c2)n1 [Compound 137, 4-[(3,5-difluorophenyl)amino]-6-[(1H-indol-6-yl)amino]pyridine-2-carbonitrile]	0.2 to 1 µM
N#Cc1cc(N2CCC(C(F)(F)F)CC2)cc(Nc2ccc3cc[nH]c3c2)n1 [Compound 118, 6-[(1H-indol-6-yl)amino]-4-[4-(trifluoromethyl)piperidin-1-yl]pyridine-2-carbonitrile]	1 to 5 µM
N#Cc1cc(Nc2ccc(F)c(F)c2)cc(Nc2cc(Cl)c3cc[nH]c3c2)n1 [Compound 168, 6-[(4-chloro-1H-indol-6-yl)amino]-4-[(3,4-difluorophenyl)amino]pyridine-2-carbonitrile]	0.04 to 0.2 µM

Second part, the compound after the results:

EC50	Compound
0.2 to 1 µM	Cc1nc2cc(Nc3cc(C#N)nc(Nc4cc(Cl)c5cc[nH]c5c4)c3)ccc2s1 [Compound 172, 6-[(4-chloro-1H-indol-6-yl)amino]-4-[(2-methyl-1,3-benzothiazol-5-yl)amino]pyridine-2-carbonitrile]
1 to 5 µM	N#Cc1cc(Nc2ccc3c(c2)CC(=O)N3)cc(Nc2cc(Cl)c3cc[nH]c3c2)n1 [Compound 181, 6-[(4-chloro-1H-indol-6-yl)amino]-4-[(2-oxo-2,3-dihydro-1H-indol-5-yl)amino]pyridine-2-carbonitrile]
0.04 to 0.2 µM	N#Cc1cc(Nc2ccc(OC(F)F)nc2)cc(Nc2cc(Cl)c3cc[nH]c3c2)n1 [Compound 182, 6-[(4-chloro-1H-indol-6-yl)amino]-4-{[6-(difluoromethoxy)pyridin-3-yl]amino}pyridine-2-carbonitrile]
0.2 to 1 µM	Cc1nc2ccc(Nc3cc(C#N)nc(Nc4cc(Cl)c5cc[nH]c5c4)c3)cc2s1 [Compound 179, 6-[(4-chloro-1H-indol-6-yl)amino]-4-[(2-methyl-1,3-benzothiazol-6-yl)amino]pyridine-2-carbonitrile]
0.2 to 1 µM	N#Cc1cc(Nc2cc(F)cc(Cl)c2)cc(Nc2cc(Cl)c3cc[nH]c3c2)n1 [Compound 171, 6-[(4-chloro-1H-indol-6-yl)amino]-4-[(3-chloro-5-fluorophenyl)amino]pyridine-2-carbonitrile]
0.2 to 1 µM	N#Cc1cc(Nc2cncc(C(F)(F)F)c2)cc(Nc2cc(Cl)c3cc[nH]c3c2)n1 [Compound 187, 6-[(4-chloro-1H-indol-6-yl)amino]-4-{[5-(trifluoromethyl)pyridin-3-yl]amino}pyridine-2-carbonitrile]
1 to 5 µM	CNC(=O)c1ccc(Nc2cc(C#N)nc(Nc3cc(Cl)c4cc[nH]c4c3)c2)cc1F [Compound 190, 4-({2-[(4-chloro-1H-indol-6-yl)amino]-6-cyanopyridin-4-yl}amino)-2-fluoro-N-methylbenzamide]
1 to 5 µM	N#Cc1cc(Nc2ccc3c(c2)C(=O)NC3)cc(Nc2cc(Cl)c3cc[nH]c3c2)n1 [Compound 180, 6-[(4-chloro-1H-indol-6-yl)amino]-4-[(3-oxo-2,3-dihydro-1H-isoindol-5-yl)amino]pyridine-2-carbonitrile]
0.04 to 0.2 µM	N#Cc1cc(Nc2ccc3c(c2)OC(F)(F)O3)cc(Nc2cc(Cl)c3cc[nH]c3c2)n1 [Compound 177, 6-[(4-chloro-1H-indol-6-yl)amino]-4-[(2,2-difluoro-2H-1,3-benzodioxol-5-yl)amino]pyridine-2-carbonitrile]

From US20240076285A1, “COMPOUNDS AND COMPOSITIONS FOR TREATING CONDITIONS ASSOCIATED WITH STING ACTIVITY” (IFM Due, Inc., priority 2020, published 2024)
